Literature values in patent publication US20200129499A1, “COMBINATION OF TASQUINIMOD OR A PHARMACEUTICALLY ACCEPTABLE SALT THEREOF AND A PD-1 AND/OR PD-L1 INHIBITOR, FOR USE AS A MEDICAMENT” (ACTIVE BIOTECH AB, priority 2015, published 2020).

Test system: metastatic bladder cancer
Settings: phase 1a study, cited from earlier work

atezolizumab: anti-PD-L1 human IgG1 antibody (Roche)
people alive at 1 year (people with the highest levels of PD-L1 expression): 57%
Complete responses (CRs) (metastatic bladder cancer): 20%
